Patent publication US20170166598A1, “HETEROARYL COMPOUNDS FOR KINASE INHIBITION” (ARIAD PHARMACEUTICALS, INC., priority 2014, published 2017)

How the values were obtained:
Assay type in all cases: cell-based
[1] = biological target: T1, Her2 exon 20 YVMA insertion (A775_G776ins YVMA) (Homo sapiens, UniProt P04626, INS775YVMA); assay: Ba/F3-Her2 Exon20 YVMA cell anti-proliferative assay (CellTiter 96 MTS, 72 h); settings: Ba/F3-Her2 Exon20 YVMA cells
T1 construct: expressed in transfected cells; host or cells: Ba/F3 (murine pro-B) cells transduced with lentivirus from pLVX-IRES puro
Procedure, shortened: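 IL-3-independent Ba/F3 cells transduced with the YVMA insertion were treated with compound in 4-fold dilutions from 10,000 nM top. After 72 h at 37° C, viable cells were quantified by MTS tetrazolium conversion, with absorbance read at 490 nm after 2 h.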

[2] = biological target: T2, human EGFR E746-A750 deletion and T790M Mutation (Homo sapiens, UniProt P00533, DEL746-750/T790M); assay: Ba/F3-EGFR-Del/T790M cell anti-proliferative assay (CellTiter 96 MTS, 72 h); settings: Ba/F3-EGFR-Del/T790M cells
T2 construct: expressed in transfected cells; host or cells: Ba/F3 (murine pro-B) cells transduced with lentivirus from pLVX-IRES puro
Procedure, shortened: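 Ba/F3 cells made IL-3-independent by lentiviral human EGFR E746-A750 del/T790M, puromycin-selected. Cells treated 72 h at 37 °C with compound, 4-fold dilutions from 10,000 nM top concentration. Viability read by MTS tetrazolium-to-formazan conversion, absorbance at 490 nm after 2 h with reagent.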

[3] = biological target: T3, human EGFR exon 20 insertion ASV (V769_D770insASV) (Homo sapiens, UniProt P00533, INS769ASV); assay: Ba/F3-EGFR-Exon20-ASV cell anti-proliferative assay (CellTiter 96 MTS, 72 h); settings: Ba/F3-EGFR-Exon20-ASV cells
T3 construct: expressed in transfected cells; host or cells: Ba/F3 (murine pro-B) cells transduced with lentivirus from pLVX-IRES puro
Procedure, shortened: (§1)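 Ba/F3 cells made IL-3-independent by lentiviral EGFR exon 20 NPG or ASV insertion were exposed 72 h at 37 °C to 4-fold dilutions of compound (top 10,000 nM). Viability read by MTS tetrazolium conversion, absorbance 490 nm after 2 h.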

[4] = biological target: T4, human EGFR exon 20 insertion NPG (H773_V774insNPG) (Homo sapiens, UniProt P00533, INS772GNP); assay: Ba/F3-EGFR-Exon20-NPG cell anti-proliferative assay (CellTiter 96 MTS, 72 h); settings: Ba/F3-EGFR-Exon20-NPG cells
T4 construct: expressed in transfected cells; host or cells: Ba/F3 (murine pro-B) cells transduced with lentivirus from pLVX-IRES puro
Procedure, shortened: as §1

[5] = biological target: T5, human EGFR L858R and T790M double mutation (Homo sapiens, UniProt P00533, L858R/T790M); assay: Ba/F3-EGFR L858R/T790M cell anti-proliferative assay (CellTiter 96 MTS, 72 h); settings: Ba/F3-EGFR L858R/T790M cells
T5 construct: expressed in transfected cells; host or cells: Ba/F3 (murine pro-B) cells transduced with lentivirus from pLVX-IRES puro
Protocol: An expression vector, pLVX-IRES puro (Clontech) coding for human EGFR L858R and T790M double mutation, was transfected into HEK293 cells by the Trans-Lentiviral ORF Packaging System (Thermo Scientific), to produce virus encoding EGFR L858R and T790M double mutations. Ba/F3 (DSMZ) cells maintained in RPMI 1640 medium supplemented with 10% fetal bovine serum, 200 μM L-glutamine/l 200 μg/mL penicillin/200 μg/mL streptomycin (Life Technology) and 10 ng/mL IL-3 (R&D system), were infected by EGFR L858R and T790M double mutation virus and subsequently selected by puromycin (Life Technology) selection and IL-3 depletion. […] The anti-proliferative activity of compounds was determined as follows: BaF3-EGFR L858R/T790M cells seeded in 96 well plates (2500 cells/well) were treated with test compound (dissolved in DMSO) at a series of concentrations (4-fold dilution, top concentration: 10,000 nM). The plates were incubated for 72 h in a 37° C. incubator with 5% CO2, and the number of viable cells in each well were measured indirectly by CellTiter 96® Aqueous One Solution Cell Proliferation Assay (Promega; this assay is a colorimetric method for determining the number of viable cells through measurement of their metabolic activity by detection of enzymatic conversion of tetrazolium salts into blue formazan derivatives). Reagent (20 μL) was added into each well, and the plates were returned to the incubator for 2 h. The absorbance in each well was then measured at 490 nm using an Envision plate reader (Perkin Elmer).

T5 sequence (P00533 25-1210 T790M/L858R): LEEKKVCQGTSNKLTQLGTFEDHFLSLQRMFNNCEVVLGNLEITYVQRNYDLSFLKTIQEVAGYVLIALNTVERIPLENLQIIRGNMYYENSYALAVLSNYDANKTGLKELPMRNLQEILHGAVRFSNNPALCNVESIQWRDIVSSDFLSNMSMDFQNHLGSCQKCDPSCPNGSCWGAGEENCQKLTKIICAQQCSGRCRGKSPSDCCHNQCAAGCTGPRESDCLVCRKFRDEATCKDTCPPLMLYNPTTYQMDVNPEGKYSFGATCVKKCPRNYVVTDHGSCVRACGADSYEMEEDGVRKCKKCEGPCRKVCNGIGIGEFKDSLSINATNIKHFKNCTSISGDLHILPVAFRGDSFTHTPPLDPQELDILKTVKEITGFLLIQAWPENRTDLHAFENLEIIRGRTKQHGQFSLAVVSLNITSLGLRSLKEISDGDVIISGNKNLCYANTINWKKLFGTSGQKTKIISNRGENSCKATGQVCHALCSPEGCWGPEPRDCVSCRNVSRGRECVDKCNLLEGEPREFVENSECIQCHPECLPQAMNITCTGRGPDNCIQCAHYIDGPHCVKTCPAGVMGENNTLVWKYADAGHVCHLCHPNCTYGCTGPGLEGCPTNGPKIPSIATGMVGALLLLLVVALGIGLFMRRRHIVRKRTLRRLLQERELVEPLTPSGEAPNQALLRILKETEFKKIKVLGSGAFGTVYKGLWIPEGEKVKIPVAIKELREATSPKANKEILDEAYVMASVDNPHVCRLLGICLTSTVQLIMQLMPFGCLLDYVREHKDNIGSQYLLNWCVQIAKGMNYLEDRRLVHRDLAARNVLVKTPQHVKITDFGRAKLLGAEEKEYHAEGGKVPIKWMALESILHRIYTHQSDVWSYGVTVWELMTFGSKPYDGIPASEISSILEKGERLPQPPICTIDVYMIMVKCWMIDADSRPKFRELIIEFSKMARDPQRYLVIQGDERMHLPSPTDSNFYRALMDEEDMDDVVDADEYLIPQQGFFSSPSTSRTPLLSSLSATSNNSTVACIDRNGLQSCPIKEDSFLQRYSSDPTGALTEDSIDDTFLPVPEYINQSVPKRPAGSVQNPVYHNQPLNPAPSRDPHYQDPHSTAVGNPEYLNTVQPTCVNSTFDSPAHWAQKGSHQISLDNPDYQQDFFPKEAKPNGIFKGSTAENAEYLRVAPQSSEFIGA
T1 sequence (P04626 with tags, fused parts or gaps INS775YVMA): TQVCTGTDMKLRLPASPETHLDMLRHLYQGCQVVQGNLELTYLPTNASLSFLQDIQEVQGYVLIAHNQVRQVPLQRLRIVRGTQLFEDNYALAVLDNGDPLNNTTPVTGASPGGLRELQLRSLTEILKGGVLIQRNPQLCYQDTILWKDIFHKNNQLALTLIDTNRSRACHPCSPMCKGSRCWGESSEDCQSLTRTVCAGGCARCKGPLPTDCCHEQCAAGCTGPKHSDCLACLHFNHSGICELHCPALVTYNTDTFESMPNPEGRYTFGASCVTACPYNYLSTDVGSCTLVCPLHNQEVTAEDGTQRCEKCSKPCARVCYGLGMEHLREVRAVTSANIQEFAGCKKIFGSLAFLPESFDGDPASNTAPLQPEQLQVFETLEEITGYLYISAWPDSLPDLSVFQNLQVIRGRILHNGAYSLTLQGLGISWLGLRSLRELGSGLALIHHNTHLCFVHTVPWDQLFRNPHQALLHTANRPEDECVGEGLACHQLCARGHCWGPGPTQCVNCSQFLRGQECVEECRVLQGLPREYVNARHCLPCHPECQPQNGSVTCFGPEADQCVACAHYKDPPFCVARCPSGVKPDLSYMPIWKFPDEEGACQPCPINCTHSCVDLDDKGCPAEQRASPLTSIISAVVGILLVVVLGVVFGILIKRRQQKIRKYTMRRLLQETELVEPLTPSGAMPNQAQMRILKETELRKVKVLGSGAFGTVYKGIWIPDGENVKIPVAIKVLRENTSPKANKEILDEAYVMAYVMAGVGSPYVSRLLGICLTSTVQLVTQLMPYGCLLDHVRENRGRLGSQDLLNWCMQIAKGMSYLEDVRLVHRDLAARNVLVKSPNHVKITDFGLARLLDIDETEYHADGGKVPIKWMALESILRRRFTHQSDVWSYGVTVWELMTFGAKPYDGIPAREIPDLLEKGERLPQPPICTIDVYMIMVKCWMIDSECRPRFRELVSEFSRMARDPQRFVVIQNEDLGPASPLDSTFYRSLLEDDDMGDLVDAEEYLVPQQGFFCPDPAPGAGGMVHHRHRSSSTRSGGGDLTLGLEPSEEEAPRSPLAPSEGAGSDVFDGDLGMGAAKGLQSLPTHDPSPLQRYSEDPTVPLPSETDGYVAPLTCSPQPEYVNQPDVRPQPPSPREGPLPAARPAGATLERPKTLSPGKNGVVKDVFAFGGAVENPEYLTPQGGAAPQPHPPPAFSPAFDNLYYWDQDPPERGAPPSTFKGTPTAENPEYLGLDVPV
T4 sequence (P00533 with tags, fused parts or gaps INS772GNP): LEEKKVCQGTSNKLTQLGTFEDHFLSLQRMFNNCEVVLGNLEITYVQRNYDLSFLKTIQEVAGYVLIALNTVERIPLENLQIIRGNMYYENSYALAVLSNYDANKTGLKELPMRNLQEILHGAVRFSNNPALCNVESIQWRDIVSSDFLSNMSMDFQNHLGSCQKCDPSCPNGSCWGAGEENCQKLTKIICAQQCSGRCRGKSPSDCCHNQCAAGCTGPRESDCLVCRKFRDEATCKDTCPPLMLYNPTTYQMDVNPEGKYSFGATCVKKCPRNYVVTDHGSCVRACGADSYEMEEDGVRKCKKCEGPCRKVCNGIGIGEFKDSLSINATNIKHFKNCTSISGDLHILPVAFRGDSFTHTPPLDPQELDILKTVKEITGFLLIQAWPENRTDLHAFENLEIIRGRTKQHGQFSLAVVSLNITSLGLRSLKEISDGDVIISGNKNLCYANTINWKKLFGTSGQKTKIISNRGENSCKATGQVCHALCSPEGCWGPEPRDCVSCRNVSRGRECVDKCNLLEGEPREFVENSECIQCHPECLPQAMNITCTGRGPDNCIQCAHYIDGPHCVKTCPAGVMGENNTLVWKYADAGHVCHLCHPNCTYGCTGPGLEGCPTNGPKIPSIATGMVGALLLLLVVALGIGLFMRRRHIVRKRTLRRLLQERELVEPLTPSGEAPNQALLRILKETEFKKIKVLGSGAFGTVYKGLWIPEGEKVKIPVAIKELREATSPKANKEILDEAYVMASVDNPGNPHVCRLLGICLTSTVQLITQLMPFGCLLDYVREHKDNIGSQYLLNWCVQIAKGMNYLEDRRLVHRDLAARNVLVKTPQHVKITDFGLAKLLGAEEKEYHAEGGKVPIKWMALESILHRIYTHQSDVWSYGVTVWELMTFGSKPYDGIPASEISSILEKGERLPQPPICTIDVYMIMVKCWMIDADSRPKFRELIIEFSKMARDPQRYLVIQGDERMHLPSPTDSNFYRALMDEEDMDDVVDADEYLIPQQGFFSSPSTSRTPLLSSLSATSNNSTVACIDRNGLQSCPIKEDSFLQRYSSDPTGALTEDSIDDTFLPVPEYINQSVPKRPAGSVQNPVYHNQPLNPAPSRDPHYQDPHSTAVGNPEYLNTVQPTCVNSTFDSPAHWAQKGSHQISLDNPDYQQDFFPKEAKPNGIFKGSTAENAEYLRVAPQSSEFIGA
T3 sequence (P00533 with tags, fused parts or gaps INS769ASV): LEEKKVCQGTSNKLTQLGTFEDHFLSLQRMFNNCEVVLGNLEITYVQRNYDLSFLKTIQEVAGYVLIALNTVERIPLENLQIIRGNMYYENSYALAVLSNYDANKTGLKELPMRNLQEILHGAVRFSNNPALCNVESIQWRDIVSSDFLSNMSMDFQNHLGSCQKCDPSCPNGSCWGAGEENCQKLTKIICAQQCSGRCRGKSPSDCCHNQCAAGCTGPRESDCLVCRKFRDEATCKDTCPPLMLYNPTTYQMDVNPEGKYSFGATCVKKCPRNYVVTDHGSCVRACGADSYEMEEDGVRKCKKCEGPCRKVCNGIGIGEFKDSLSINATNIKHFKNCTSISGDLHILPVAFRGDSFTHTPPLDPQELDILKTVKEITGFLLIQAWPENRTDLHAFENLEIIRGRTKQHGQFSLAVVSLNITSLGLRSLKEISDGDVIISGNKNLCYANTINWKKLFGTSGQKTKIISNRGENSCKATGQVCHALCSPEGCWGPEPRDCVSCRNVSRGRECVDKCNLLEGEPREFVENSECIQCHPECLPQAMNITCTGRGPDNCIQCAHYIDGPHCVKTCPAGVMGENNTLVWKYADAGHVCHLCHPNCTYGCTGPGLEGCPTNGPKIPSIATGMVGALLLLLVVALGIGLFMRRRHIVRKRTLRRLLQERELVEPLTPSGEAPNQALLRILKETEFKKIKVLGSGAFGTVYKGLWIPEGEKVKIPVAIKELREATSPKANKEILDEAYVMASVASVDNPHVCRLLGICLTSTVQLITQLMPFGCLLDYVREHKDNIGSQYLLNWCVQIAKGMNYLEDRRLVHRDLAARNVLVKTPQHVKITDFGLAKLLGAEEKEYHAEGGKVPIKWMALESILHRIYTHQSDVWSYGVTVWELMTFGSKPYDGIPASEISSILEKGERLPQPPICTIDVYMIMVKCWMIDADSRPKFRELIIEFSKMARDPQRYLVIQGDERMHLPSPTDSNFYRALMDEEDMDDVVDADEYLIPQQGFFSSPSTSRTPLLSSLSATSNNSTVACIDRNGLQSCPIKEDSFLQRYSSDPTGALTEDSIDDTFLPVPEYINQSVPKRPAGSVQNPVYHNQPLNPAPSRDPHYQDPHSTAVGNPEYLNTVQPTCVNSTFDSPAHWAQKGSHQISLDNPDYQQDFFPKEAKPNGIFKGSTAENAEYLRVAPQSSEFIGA

Row | SMILES | IC50 [1] | IC50 [3] | IC50 [4] | EGFR exon 19 deletion and exon 20 T790M mutation IC50 [2] | EGFR exon 21 L858R and exon 20 T790M mutation IC50 [5]
1 | C=CC(=O)Nc1cc(Nc2ncc(C#N)c(-c3cn4c5c(cccc35)OCC4)n2)c(OC)cc1N(C)CCN(C)C [Example 4, N-(5-((5-cyano-4-(2,3-dihydro-[1,4]oxazino[2,3,4-hi]indol-6-yl)pyrimidin-2-yl)amino)-2-((2-(dimethylamino)ethyl)(methyl)amino)-4-methoxyphenyl)acrylamide] | < 0.1 µM | < 0.1 µM | < 0.1 µM | A (IC50 value for the indicated mutant below about 100 nM) | A (IC50 value for the indicated mutant below about 100 nM)
2 | C=CC(=O)Nc1cc(Nc2ncc(C=C)c(-c3cn4c5c(cccc35)CCC4)n2)c(OC)cc1N(C)CCN(C)C [Example 27, N-(5-((4-(5,6-dihydro-4H-pyrrolo[3,2,1-ij]quinolin-1-yl)-5-vinylpyrimidin-2-yl)amino)-2-((2-(dimethylamino)ethyl)(methyl)amino)-4-methoxyphenyl)acrylamide] | < 0.1 µM | < 0.1 µM | < 0.1 µM | A (IC50 value for the indicated mutant below about 100 nM) | A (IC50 value for the indicated mutant below about 100 nM)
3 | C=CC(=O)Nc1cc(Nc2ncc(C(N)=O)c(-c3cn4c5c(cccc35)CCC4)n2)c(OC)cc1N(C)CCN(C)C [Example 46, 2-((5-acrylamido-4-((2-(dimethylamino)ethyl)(methyl)amino)-2-methoxyphenyl)amino)-4-(5,6-dihydro-4H-pyrrolo[3,2,1-ij]quinolin-1-yl)pyrimidin-5-carboxamide] | 0.1 to 0.5 µM | < 0.1 µM | < 0.1 µM | A (IC50 value for the indicated mutant below about 100 nM) | A (IC50 value for the indicated mutant below about 100 nM)
4 | C=CC(=O)Nc1cc(Nc2ncc(CC)c(-c3cn4c5c(cccc35)OCC4)n2)c(OC)cc1N(C)CCN(C)C [Example 1, N-(5-((4-(2,3-dihydro-[1,4]oxazino[2,3,4-hi]indol-6-yl)-5-ethylpyrimidin-2-yl)amino)-2-((2-(dimethylamino)ethyl)(methyl)amino)-4-methoxyphenyl)acrylamide] | 0.1 to 0.5 µM | < 0.1 µM | < 0.1 µM | A (IC50 value for the indicated mutant below about 100 nM) | A (IC50 value for the indicated mutant below about 100 nM)
5 | C=CC(=O)Nc1cc(Nc2ncc(Cl)c(-c3cn4c5c(cccc35)CCC4)n2)c(OC)cc1N(C)CCN(C)C [Example 11, N-(5-((5-chloro-4-(5,6-dihydro-4H-pyrrolo[3,2,1-ij]quinolin-1-yl)pyrimidin-2-yl)amino)-2-((2-(dimethylamino)ethyl)(methyl)amino)-4-methoxyphenyl)acrylamide] | 0.1 to 0.5 µM | < 0.1 µM | < 0.1 µM | A (IC50 value for the indicated mutant below about 100 nM) | A (IC50 value for the indicated mutant below about 100 nM)
6 | C=CC(=O)Nc1cc(Nc2ncc(CCC(C)(C)O)c(-c3cn4c5c(cccc35)CCC4)n2)c(OC)cc1N(C)CCN(C)C [Example 37, N-(5-((4-(5,6-dihydro-4H-pyrrolo[3,2,1-ij]quinolin-1-yl)-5-(3-hydroxy-3-methylbutyl)pyrimidin-2-yl)amino)-2-((2-(dimethylamino)ethyl)(methyl)amino)-4-methoxyphenyl)acrylamide] | 0.1 to 0.5 µM | < 0.1 µM | < 0.1 µM | A (IC50 value for the indicated mutant below about 100 nM) | B (IC50 value for the indicated mutant between about 100 to about 500 nM)
7 | C=CC(=O)Nc1cc(Nc2ncc(CCC(N)=O)c(-c3cn4c5c(cccc35)CCC4)n2)c(OC)cc1N(C)CCN(C)C [Example 40, N-(5-((5-(3-amino-3-oxopropyl)-4-(5,6-dihydro-4H-pyrrolo[3,2,1-ij]quinolin-1-yl)pyrimidin-2-yl)amino)-2-((2-(dimethylamino)ethyl)(methyl)amino)-4-methoxyphenyl)acrylamide] | > 1 µM | 0.5 to 1 µM | 0.1 to 0.5 µM | A (IC50 value for the indicated mutant below about 100 nM) | B (IC50 value for the indicated mutant between about 100 to about 500 nM)
8 | C=CC(=O)Nc1cc(Nc2ncc(C#N)c(-c3cn4c5c(cccc35)CCC4)n2)c(OC)cc1N(C)CCN(C)C(C)C [Example 26, N-(5-((5-cyano-4-(5,6-dihydro-4H-pyrrolo[3,2,1-ij]quinolin-1-yl)pyrimidin-2-yl)amino)-2-((2-(isopropyl(methyl)amino)ethyl)(methyl)amino)-4-methoxyphenyl)acrylamide] | < 0.1 µM | < 0.1 µM | < 0.1 µM | A (IC50 value for the indicated mutant below about 100 nM) | A (IC50 value for the indicated mutant below about 100 nM)

More lines, main results first:

Row | IC50 [1] | IC50 [3] | IC50 [4] | SMILES | EGFR exon 19 deletion and exon 20 T790M mutation IC50 [2] | EGFR exon 21 L858R and exon 20 T790M mutation IC50 [5]
9 | > 1 µM | 0.1 to 0.5 µM | 0.1 to 0.5 µM | C=CC(=O)Nc1cc(Nc2ncc(-c3ncc[nH]3)c(-c3cn4c5c(cccc35)CCC4)n2)c(OC)cc1N(C)CCN(C)C [Example 97] | B (IC50 value for the indicated mutant between about 100 to about 500 nM) | C (IC50 value for the indicated mutant between greater than about 500 to about 1 μM)
10 | < 0.1 µM | < 0.1 µM | > 1 µM | C=CC(=O)Nc1cc(Nc2ncc(C#N)c(-c3cn4c5c(cccc35)CCC4)n2)c(OC)cc1N(C)CCNC [Example 84, N-(5-((5-cyano-4-(5,6-dihydro-4H-pyrrolo[3,2,1-ij]quinolin-1-yl)pyrimidin-2-yl)amino)-4-methoxy-2-(methyl(2-(methylamino)ethyl)amino)phenyl)acrylamide] | A (IC50 value for the indicated mutant below about 100 nM) | A (IC50 value for the indicated mutant below about 100 nM)
11 | 0.1 to 0.5 µM | < 0.1 µM | < 0.1 µM | C=CC(=O)Nc1cc(Nc2ncc(Cl)c(-c3cn4c5c(cccc35)OCC4)n2)c(OC)cc1N(C)CCN(C)C [Example 76, N-(5-((5-chloro-4-(2,3-dihydro-[1,4]oxazino[2,3,4-hi]indol-6-yl)pyrimidin-2-yl)amino)-2-((2-(dimethylamino)ethyl)(methyl)amino)-4-methoxyphenyl)acrylamide] | A (IC50 value for the indicated mutant below about 100 nM) | A (IC50 value for the indicated mutant below about 100 nM)
12 | > 1 µM | > 1 µM | > 1 µM | C=CC(=O)Nc1cc(Nc2ncc(CCP(C)(C)=O)c(-c3cn4c5c(cccc35)CCC4)n2)c(OC)cc1N(C)CCN(C)C [Example 96] | D (IC50 value for the indicated mutant greater than about 1 μM) | D (IC50 value for the indicated mutant greater than about 1 μM)
